We go through five compounds from patent US11331299B2, “Medicinal use of serrulatane diterpenes” (The University of Sydney, priority 2016, dated 2022).

Several values for one entry are separate records, joined by “and”; a condition that tells them apart may be missing. Equal entries are not always repeated.

As usually defined, the EC50 is the concentration that produces a half-maximal response. Usually GI50 stands for the concentration that inhibits growth by half. As usually defined, the IC50 is the concentration that gives 50% inhibition. In general, inhibition refers to the drop in the measured response relative to a control, in per cent.

Test [1] concerns Hs 729. As to the kind of experiment: OncoPanel cell proliferation assay (10-day). The class given is cell-based, human. The note with it: for EC50 / GI50 / IC50: Homo sapiens, Hs 729, Soft Tissue - Sarcoma; for EC50: read-out: Cell Count EC50; for GI50: read-out: Cell Count GI50; for IC50: read-out: Cell Count IC50.
Test [2] addresses DAPK3/ZIP (substrate histone H3 full length) (Homo sapiens, UniProt O43293). Description: Epigenetic enzyme assay, Kinases. The class given is biochemical. The note with it: read-out: % Inhibition of Control Values.
The target in test [3] is T1, 5-Lipoxygenase (Homo sapiens, UniProt P09917).
T1 construct: host or cells: Insect Sf9 cells
T1 sequence (P09917 1-674): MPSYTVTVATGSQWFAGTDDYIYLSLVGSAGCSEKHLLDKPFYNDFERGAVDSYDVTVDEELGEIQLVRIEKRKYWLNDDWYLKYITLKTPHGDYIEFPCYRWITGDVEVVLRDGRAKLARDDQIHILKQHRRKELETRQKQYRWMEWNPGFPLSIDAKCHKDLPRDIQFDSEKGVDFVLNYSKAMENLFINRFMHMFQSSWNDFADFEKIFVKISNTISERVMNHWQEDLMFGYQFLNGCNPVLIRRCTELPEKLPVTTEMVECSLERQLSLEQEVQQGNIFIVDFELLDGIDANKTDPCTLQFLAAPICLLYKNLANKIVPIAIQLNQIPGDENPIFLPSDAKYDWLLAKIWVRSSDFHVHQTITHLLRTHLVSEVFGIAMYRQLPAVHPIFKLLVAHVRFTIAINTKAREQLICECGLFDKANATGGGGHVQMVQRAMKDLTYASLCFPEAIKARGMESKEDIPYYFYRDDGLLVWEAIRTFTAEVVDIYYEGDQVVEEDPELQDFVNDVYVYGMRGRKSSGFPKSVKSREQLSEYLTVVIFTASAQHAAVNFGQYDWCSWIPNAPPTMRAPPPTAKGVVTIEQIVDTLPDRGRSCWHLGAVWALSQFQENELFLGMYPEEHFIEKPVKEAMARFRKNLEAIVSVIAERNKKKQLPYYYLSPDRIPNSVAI
As to the kind of experiment: 5-Lipoxygenase. The class given is biochemical. The following applies: for remaining activity at 10 µM: assay year 2015, read-out: % Control Response.

In test [4] the target is T2, UHRF1 (108-286) (h) (Homo sapiens, UniProt Q96T88).
T2 construct: Eurofins CEREP (France), contract laboratory
T2 sequence (Q96T88 108-286): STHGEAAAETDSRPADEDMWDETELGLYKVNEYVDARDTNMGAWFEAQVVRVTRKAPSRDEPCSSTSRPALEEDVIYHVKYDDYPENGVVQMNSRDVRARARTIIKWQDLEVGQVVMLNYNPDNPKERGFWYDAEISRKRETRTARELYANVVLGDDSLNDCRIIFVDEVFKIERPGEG
Description: Epigenetic binding assay, PHD domain. The following applies: for inhibition at 10 µM: read-out: % Inhibition of Control Specific Binding.

Test [5] addresses HDAC3 (h) (Homo sapiens, UniProt O15379). As to the kind of experiment: Epigenetic enzyme assay, Histone deacetylase (HDACs). Type of test: biochemical. The following applies: read-out: % Inhibition of Control Values.
The target of test [6] is T3, CBX5 (h) chromodomain (Homo sapiens, UniProt P45973).
T3 construct: Recognition and specificity determinants of the human cbx chromodomains; Eurofins CEREP (France), contract laboratory
As to the kind of experiment: Epigenetic binding assay, Chromodomain. The following applies: read-out: % Inhibition of Control Specific Binding.

Test [7] concerns the target T4, PRMT7 (h) (Homo sapiens, UniProt Q9NVM4).
T4 sequence (Q9NVM4 1-692): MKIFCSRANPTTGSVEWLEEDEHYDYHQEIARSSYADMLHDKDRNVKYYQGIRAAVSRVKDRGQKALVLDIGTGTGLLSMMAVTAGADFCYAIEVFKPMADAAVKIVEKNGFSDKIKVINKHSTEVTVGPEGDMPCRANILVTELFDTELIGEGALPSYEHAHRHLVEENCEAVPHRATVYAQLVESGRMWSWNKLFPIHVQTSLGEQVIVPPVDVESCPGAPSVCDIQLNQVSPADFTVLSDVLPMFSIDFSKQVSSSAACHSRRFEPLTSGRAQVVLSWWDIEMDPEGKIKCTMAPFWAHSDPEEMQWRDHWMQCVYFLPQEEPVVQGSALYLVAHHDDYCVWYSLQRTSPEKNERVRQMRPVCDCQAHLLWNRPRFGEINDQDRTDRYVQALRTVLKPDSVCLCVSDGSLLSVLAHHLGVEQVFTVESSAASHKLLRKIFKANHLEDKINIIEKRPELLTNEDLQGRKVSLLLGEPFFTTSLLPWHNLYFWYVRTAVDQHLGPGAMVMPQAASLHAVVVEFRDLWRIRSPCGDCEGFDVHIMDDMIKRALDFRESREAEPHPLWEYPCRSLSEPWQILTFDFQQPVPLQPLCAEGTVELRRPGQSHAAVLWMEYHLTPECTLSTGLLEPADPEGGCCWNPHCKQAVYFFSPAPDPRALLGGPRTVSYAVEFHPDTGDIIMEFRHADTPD
Description: Epigenetic enzyme assay, Methyltransferases (MTs). Type of test: biochemical. The following applies: read-out: % Inhibition of Control Values.

Test [8] concerns the target DOT1L (h) (Homo sapiens, UniProt Q8TEK3). As to the kind of experiment: Epigenetic enzyme assay, Methyltransferases (MTs). Type of test: biochemical. The following applies: read-out: % Inhibition of Control Values.
Test [9] has as its target SUV39H2 (h) (Homo sapiens, UniProt Q9H5I1). Description: Epigenetic enzyme assay, Methyltransferases (MTs). Type of test: biochemical. The following applies: for inhibition at 10 µM: read-out: % Inhibition of Control Values.
In test [10] the target is hDNMT3a (Homo sapiens, UniProt Q9Y6K1). Description: Epigenetic enzyme assay, DNA methyltransferases (DNMTs). The note with it: for inhibition at 10 µM: read-out: % Inhibition of Control Values. Type of test: biochemical.
For test [11], the target named is Deacetylase, Histone 7 (Homo sapiens, UniProt Q8WUI4). As to the kind of experiment: Deacetylase, Histone 7 (PanLab). Type of test: biochemical. The following applies: assay year 2014, read-out: % Control Response.
Test [12] has as its target Deacetylase, Histone 6 (Homo sapiens, UniProt Q9UBN7). As to the kind of experiment: Deacetylase, Histone 6 (PanLab). Type of test: biochemical. The following applies: assay year 2014, read-out: % Control Response.
Test [13] has as its target Deacetylase, Sirtuin SIRT5 (Homo sapiens, UniProt Q9NXA8). As to the kind of experiment: Deacetylase, Sirtuin SIRT5 (PanLab). Type of test: biochemical. The following applies: assay year 2014, read-out: % Control Response.
The target of test [14] is Deacetylase, Sirtuin SIRT2 (Homo sapiens, UniProt Q8IXJ6). Description: Deacetylase, Sirtuin SIRT2 (PanLab). Type of test: biochemical. The note with it: assay year 2014, read-out: % Control Response.
The target of test [15] is Deacetylase, Sirtuin SIRT3 (Homo sapiens, UniProt Q9NTG7). Description: Deacetylase, Sirtuin SIRT3 (PanLab). The note with it: assay year 2014, read-out: % Control Response. Type of test: biochemical.
The target of test [16] is Deacetylase, Histone 10 (Homo sapiens, UniProt Q969S8). As to the kind of experiment: Deacetylase, Histone 10 (PanLab). The class given is biochemical. The note with it: assay year 2014, read-out: % Control Response.

Sequence of HDAC3 (h) (O15379 whole entry): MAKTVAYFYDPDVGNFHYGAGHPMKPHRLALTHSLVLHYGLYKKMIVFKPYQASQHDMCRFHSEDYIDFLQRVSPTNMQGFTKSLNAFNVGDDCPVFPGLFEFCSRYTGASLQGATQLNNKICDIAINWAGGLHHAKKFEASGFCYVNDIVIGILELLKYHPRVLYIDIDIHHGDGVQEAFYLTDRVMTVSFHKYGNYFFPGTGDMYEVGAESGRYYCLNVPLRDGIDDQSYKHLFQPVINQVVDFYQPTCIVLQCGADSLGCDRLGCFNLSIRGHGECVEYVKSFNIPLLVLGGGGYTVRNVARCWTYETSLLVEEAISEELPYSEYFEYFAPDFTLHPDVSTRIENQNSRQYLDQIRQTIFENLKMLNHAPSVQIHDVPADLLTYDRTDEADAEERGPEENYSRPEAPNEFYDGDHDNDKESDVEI
Sequence of HDAC3 (h) (Q9Y618 395-489 partner limits assumed): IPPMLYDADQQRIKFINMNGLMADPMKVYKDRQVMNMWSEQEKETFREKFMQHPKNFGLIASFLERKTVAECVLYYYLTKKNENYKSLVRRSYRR
T3 sequence (P45973 20-78 limits assumed): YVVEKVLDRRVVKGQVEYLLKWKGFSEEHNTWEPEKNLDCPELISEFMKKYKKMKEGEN
Sequence of hDNMT3a (Q9Y6K1 whole entry, looked up): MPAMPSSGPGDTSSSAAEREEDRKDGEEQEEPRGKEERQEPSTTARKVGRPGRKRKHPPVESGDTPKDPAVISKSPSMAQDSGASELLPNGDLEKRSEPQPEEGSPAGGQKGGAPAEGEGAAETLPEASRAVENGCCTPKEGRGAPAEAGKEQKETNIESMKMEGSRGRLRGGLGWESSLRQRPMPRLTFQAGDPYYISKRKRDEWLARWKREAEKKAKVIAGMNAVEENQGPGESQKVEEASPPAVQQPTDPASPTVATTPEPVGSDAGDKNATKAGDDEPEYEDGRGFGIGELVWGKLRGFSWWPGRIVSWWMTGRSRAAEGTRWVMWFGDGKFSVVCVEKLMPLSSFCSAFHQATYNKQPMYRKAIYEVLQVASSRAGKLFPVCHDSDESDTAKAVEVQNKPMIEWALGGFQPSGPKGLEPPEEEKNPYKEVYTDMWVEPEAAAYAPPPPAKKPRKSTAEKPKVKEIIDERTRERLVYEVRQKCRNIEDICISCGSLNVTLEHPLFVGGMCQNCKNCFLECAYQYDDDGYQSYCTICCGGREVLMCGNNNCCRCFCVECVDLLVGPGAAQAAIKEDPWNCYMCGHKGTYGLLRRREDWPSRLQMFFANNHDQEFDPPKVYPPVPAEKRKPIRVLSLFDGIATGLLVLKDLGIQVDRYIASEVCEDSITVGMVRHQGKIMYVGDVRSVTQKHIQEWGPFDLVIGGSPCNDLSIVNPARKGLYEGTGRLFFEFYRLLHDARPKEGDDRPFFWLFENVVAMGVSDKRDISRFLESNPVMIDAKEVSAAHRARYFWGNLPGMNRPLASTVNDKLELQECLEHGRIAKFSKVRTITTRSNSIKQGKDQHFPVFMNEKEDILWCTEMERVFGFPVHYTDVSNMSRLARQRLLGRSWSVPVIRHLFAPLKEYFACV
Sequence of DOT1L (h) (Q8TEK3 whole entry): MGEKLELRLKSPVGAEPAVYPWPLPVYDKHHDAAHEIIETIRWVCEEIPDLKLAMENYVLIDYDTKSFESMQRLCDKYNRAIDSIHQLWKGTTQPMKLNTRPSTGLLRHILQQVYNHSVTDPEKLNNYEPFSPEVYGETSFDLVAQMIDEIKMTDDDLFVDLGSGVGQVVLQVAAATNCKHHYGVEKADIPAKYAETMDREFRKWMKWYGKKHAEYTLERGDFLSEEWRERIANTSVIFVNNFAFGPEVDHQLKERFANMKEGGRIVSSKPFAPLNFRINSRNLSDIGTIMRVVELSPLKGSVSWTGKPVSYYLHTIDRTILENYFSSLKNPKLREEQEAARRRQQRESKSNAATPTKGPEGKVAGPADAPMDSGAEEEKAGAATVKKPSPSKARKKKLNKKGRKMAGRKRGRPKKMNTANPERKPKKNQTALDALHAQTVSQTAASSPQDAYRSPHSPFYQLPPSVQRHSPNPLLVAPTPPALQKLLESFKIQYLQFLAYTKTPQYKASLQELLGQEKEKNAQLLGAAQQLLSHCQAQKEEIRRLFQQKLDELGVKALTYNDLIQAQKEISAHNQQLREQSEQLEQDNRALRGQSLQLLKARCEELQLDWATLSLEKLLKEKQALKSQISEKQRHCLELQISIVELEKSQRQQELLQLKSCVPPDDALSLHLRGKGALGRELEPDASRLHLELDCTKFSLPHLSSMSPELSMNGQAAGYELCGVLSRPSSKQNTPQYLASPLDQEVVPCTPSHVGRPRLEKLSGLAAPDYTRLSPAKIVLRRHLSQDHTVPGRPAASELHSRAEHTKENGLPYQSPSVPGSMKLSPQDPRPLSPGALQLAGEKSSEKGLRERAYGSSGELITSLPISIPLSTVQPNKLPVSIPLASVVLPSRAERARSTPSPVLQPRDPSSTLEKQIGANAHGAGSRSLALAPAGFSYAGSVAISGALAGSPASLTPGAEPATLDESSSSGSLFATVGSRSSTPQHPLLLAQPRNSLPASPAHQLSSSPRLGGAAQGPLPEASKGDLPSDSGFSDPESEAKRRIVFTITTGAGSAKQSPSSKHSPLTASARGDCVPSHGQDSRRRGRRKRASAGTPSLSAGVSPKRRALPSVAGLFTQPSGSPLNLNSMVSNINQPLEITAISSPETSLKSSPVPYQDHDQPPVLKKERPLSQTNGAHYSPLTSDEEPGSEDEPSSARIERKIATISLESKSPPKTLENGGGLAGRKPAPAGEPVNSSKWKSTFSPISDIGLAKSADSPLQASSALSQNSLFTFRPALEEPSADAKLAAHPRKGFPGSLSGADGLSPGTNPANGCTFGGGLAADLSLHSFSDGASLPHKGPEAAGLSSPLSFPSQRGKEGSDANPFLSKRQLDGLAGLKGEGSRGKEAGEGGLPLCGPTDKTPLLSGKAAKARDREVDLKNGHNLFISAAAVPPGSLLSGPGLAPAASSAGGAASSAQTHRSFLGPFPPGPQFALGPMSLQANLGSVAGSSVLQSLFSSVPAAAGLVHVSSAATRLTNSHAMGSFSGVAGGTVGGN
Sequence of DAPK3/ZIP (substrate histone H3 full length) (O43293 whole entry): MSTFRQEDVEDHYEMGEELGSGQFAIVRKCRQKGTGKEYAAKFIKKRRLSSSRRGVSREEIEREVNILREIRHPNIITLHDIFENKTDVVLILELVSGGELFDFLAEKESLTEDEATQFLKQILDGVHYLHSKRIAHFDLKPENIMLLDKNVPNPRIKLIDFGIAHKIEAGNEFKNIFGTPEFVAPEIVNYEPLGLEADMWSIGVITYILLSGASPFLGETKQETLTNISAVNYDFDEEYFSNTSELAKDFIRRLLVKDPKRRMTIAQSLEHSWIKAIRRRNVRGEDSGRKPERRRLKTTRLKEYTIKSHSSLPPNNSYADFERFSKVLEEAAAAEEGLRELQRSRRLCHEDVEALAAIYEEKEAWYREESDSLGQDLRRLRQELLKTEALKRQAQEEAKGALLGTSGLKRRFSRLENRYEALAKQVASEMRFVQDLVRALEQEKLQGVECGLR
Sequence of SUV39H2 (h) (Q9H5I1 whole entry): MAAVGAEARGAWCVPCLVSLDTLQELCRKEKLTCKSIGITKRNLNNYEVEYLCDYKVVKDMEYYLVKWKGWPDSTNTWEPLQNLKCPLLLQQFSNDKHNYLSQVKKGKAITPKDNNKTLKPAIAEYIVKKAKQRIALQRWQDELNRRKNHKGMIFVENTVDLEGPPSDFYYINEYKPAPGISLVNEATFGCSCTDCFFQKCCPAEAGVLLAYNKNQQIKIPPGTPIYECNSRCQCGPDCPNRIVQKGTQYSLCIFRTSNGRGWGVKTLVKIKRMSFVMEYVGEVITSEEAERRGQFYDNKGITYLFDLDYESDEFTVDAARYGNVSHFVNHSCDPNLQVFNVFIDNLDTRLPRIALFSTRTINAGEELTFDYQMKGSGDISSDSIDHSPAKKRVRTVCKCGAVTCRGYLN
Sequence of Deacetylase, Sirtuin SIRT5 (Q9NXA8 37-310): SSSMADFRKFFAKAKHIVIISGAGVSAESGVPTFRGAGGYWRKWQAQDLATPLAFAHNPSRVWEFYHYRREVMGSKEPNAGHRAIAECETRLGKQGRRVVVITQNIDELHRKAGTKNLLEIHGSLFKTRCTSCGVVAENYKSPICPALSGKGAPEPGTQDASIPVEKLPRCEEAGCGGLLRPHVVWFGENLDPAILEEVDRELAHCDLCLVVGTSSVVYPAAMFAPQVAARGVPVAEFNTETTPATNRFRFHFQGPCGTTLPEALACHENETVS
Sequence of Deacetylase, Sirtuin SIRT3 (Q9NTG7 whole entry): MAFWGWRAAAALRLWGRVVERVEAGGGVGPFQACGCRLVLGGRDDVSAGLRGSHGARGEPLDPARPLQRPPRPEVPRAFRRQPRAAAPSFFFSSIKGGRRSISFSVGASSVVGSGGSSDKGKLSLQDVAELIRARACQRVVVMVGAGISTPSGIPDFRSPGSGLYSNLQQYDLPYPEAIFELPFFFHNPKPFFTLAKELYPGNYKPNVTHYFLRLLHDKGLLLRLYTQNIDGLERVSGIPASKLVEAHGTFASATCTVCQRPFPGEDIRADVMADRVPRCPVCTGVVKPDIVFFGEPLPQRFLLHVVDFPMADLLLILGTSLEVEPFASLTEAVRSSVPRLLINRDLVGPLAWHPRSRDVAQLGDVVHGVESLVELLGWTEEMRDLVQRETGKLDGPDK
Sequence of Deacetylase, Sirtuin SIRT2 (Q8IXJ6 whole entry): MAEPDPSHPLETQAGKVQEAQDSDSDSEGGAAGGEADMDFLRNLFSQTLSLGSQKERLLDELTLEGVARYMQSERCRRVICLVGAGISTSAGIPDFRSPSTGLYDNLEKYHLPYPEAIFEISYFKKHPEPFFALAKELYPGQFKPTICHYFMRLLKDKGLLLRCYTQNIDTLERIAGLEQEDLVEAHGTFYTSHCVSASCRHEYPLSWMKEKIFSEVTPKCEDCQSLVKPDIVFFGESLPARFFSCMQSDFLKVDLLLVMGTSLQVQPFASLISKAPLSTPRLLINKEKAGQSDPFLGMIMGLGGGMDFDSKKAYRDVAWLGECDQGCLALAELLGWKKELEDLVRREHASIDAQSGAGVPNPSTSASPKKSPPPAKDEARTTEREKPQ

`CC(C)=CCC[C@H](C)[C@@H]1CC[C@@H](C)c2c1cc(C)c(O)c2O` [Compound 4, 7,8-dihydroxyserrulat-14-ene]: in test [1], the concentration for a half-maximal effect (EC50) was determined as 11.9 µM, the 50% growth inhibitory concentration (GI50) stood at 11.6 µM and the half-maximal inhibitory concentration (IC50) was 11.9 µM.

For the compound `CC(C)=CCC[C@@H]1COc2c(C)cc(O)c3c2[C@H]1CC[C@H]3C` [Compound 3, 5,18-epoxy-8-hydroxyserrulat-14-ene], the inhibition at 10 µM in test [2] is 8%; in [4] (10 μM), 29%; in [5], 3%; in [6], 25%; in test [7], -36%; in test [8], 13%. Moreover, the results for the inhibition at 10 µM in test [9] and in [10] were 14% and -31%, respectively. Besides, in [3], the remaining activity at 10 µM was 67%.

For `CC(C)=CCC[C@@H]1C(O)Oc2c(C)cc(O)c3c2[C@H]1CC[C@H]3C` (stereo partly drawn) [Compound 2, 5,18-epoxyserrulat-14-en-8,18-diol], the inhibition at 10 µM in test [2] turned out to be 9%; in test [4] (10 μM) it was 34%; in [5], 1%; in test [6] it was 24%; in test [7], 0%; in test [8], 18%. The figures for the inhibition at 10 µM in test [9] and in test [10] were -16% and 3%, respectively. In addition, the EC50 in [1] came to 23.3 µM. For the same compound, the 50% growth inhibitory concentration (GI50) in test [1] was 21.8 µM. Also, in [1], the concentration for half-maximal inhibition (IC50) worked out at 23.3 µM. Besides, the remaining activity at 10 µM in test [11] was -16%; in test [3] it was 53%; in [12], -17%; in test [13], 24%; in test [14], 26%; in [15], -9%. The remaining activity at 10 µM in [16] was determined as 9%.

Take `Nc1ncnc2c1ncn2[C@@H]1O[C@H](CSCC[C@H](N)C(=O)O)[C@@H](O)[C@H]1O` [SAH]: the values for the half-maximal inhibitory concentration (IC50) in test [9] (read-out: Reference IC50) and in test [10] (read-out: Reference IC50) were 24 µM and 0.052 µM, respectively.

Consider `CC(C)=CCC[C@H](CO)[C@@H]1CC[C@@H](C)c2c1cc(C)c(O)c2O` [Compound 1, 7,8,18-trihydroxyserrulat-14-ene], for which the inhibition at 10 µM in test [2] is 4%; in [4] (10 μM) it was 73%; in [5], 1%; in test [6], 25%; in [7], -2%; in test [8] it was -5%. Also, the inhibition at 10 µM in test [9] is -8%; in test [10] it was 3%. Further, in test [1], the 50% effective concentration (EC50) was determined as 2.77 µM. Also, in [1], the GI50 amounted to 2.67 µM. For the same compound, the IC50 in [1] is 2.78 µM; in test [3] (concentration-response 10 to 0.01 μM), 2.3 µM and 2.31 µM; in test [4] (Table 9, inhibition/concentration-response curve), 11 µM. Further, the “Relative cell count (%) Mean” value in test [1] (Hs 729, 3.00E+00 microM) came to 46.0%; in test [1] (Hs 729, 3.00E+01 microM) it was 1.0%; in test [1] (Hs 729, 3.01E−01 microM), 99.4%; in test [1] (Hs 729, 3.01E−02 microM) it was 107.0%; in test [1] (Hs 729, 3.02E−03 microM) it was 103.0%; in test [1] (Hs 729, 9.49E+00 microM), 3.2%. In addition, the “Relative cell count (%) Mean” value in [1] (Hs 729, 9.51E−01 microM) came to 98.9%; in test [1] (Hs 729, 9.52E−02 microM), 99.9%; in test [1] (Hs 729, 9.53E−03 microM), 108.7%; in test [1] (Hs 729, 9.55E−04 microM), 100.6%. Also, the remaining activity at 10 µM in test [11] is 1%; in [3] it was 79%; in test [12], 0%; in [13], -16%; in test [14] it was 0%; in [15] it was -6%. The remaining activity at 10 µM in test [16] is 11%. The “% Inhibition of Control Specific Binding” value in [4] (10 μM) is on record as “good inhibitory activity”. Besides, the “inhibition of binding, 1st” value was 81.5 in test [4] (3.0E−05M); −1.8 in [4] (3.0E−06M); −12.1 in [4] (3.0E−07M); −13.3 in test [4] (3.0E−08M); −11.9 in test [4] (3.0E−09M). In addition, the “inhibition of binding, 2nd” value is on record as 83.3 in test [4] (3.0E−05M); −0.1 in test [4] (3.0E−06M); −13.2 in test [4] (3.0E−07M); −12.6 in test [4] (3.0E−08M); −13.1 in [4] (3.0E−09M). In addition, the “inhibition of binding, Mean” value in test [4] (3.0E−05M) is 82.4; in test [4] (3.0E−06M), −0.9; in [4] (3.0E−07M) it was −12.7; in test [4] (3.0E−08M) it was −12.9; in [4] (3.0E−09M), −12.5.
